Experimental data: ChEMBL document CHEMBL3885861, “Open TG-GATES”

Organism: Rattus norvegicus
Experiment: Open TG-GATES - Regimen: Daily Repeat
Type: toxicity, organism-based, Sprague-Dawley
Design: regimen Daily Repeat, gender Male, age 6 weeks
Details: in vivo, sc, 0 mg/kg, route subcutaneous injection, dose 0 ug/Kg, dose level Control; for APTT / Bas / Eos / Fbg / Hb / Ht / Lym / MCH / MCHC / MCV / Mono / Neu / PT / Plat / RBC / Ret / WBC: tissue Blood
[1] = 72 h, tissue Kidney, time 3 day
[2] = 72 h, tissue Plasma, time 3 day

In the case of `CC(=O)O.N=C(N)NCCC[C@@H](NC(=O)[C@@H]1CCCN1C(=O)[C@@H]1CSSCCC(=O)N[C@@H](Cc2ccc(O)cc2)C(=O)N[C@@H](Cc2ccccc2)C(=O)N[C@@H](CCC(N)=O)C(=O)N[C@@H](CC(N)=O)C(=O)N1)C(=O)NCC(N)=O` [DESMOPRESSIN ACETATE], the TERMINAL_BW (72 h, time 3 day) is reported as 251.2 g, the APTT (72 h, time 3 day) is reported as 16.5 s and the Bas (72 h, time 3 day) is reported as 0%. It also gave an Eos (72 h, time 3 day) of 1%, a Fbg (72 h, time 3 day) of 269.4 mg/dL and a Hb (72 h, time 3 day) of 13.2 g/dL. For the same molecule, the Ht (72 h, time 3 day) was 40.3%, the Lym (72 h, time 3 day) was 66.8% and the MCH (72 h, time 3 day) was 21.5 pg. The MCHC (72 h, time 3 day) was 32.7%, the MCV (72 h, time 3 day) was 65.7 fL and the Mono (72 h, time 3 day) was 9.6%. It also gave a Neu (72 h, time 3 day) of 22.4%, a PT (72 h, time 3 day) of 11.9 s and a Plat (72 h, time 3 day) of 133.8 x10_4/uL. The RBC (72 h, time 3 day) was 613.4 x10_4/ul, the Ret (72 h, time 3 day) was 6.9% and the WBC (72 h, time 3 day) was 105.2 x10_2/uL. For the same molecule, the KIDNEY_L [1] was 1 g, the KIDNEY_R [1] was 1.1 g and the KIDNEY_TOTAL [1] was 2.1 g. For the same molecule, the LIVER (72 h, tissue Liver, time 3 day) was 11.8 g, the A/G [2] was 2 and the ALP [2] was 1258.4 IU/L. For the same molecule, the ALT [2] was 32.6 IU/L, the AST [2] was 68.8 IU/L and the BUN [2] was 15.6 mg/dL. For the same molecule, the CRE [2] was 0.4 mg/dL, the Ca [2] was 11.2 mg/dL and the Cl [2] was 104.6 meq/L. It also gave a DBIL [2] of 0.01 mg/dL, a GLC [2] of 185.6 mg/dL and an IP [2] of 7.3 mg/dL. For the same molecule, the K [2] was 5.4 meq/L, the LDH [2] was 203 IU/L and the Na [2] was 136 meq/L. The PL [2] was 152.2 mg/dL, the RALB [2] was 3.7 g/dL and the TBIL [2] was 0.034 mg/dL. It also gave a TC [2] of 79.8 mg/dL, a TG [2] of 119.6 mg/dL and a TP [2] of 5.6 g/dL. It also gave a gamma-GTP [2] of 1 IU/L, a TERMINAL_BW ([…], time 7 day) of 275.2 g and a TERMINAL_BW ([…], time 14 day) of 338.4 g. The TERMINAL_BW ([…], time 28 day) was 413.7 g, the APTT ([…], time 7 day) was 16.5 s and the Bas ([…], time 7 day) was 0%. For the same molecule, the Eos ([…], time 7 day) was 1%, the Fbg ([…], time 7 day) was 262.8 mg/dL and the Hb ([…], time 7 day) was 13.6 g/dL. The Ht ([…], time 7 day) was 41.6%, the Lym ([…], time 7 day) was 68.2% and the MCH ([…], time 7 day) was 21 pg. It also gave an MCHC ([…], time 7 day) of 32.8%, an MCV ([…], time 7 day) of 64.2 fL and a Mono ([…], time 7 day) of 7.4%. For the same molecule, the Neu ([…], time 7 day) was 23.4%, the PT ([…], time 7 day) was 12 s and the Plat ([…], time 7 day) was 124.2 x10_4/uL. For the same molecule, the RBC ([…], time 7 day) was 648.6 x10_4/ul, the Ret ([…], time 7 day) was 6.6% and the WBC ([…], time 7 day) was 103.6 x10_2/uL. It also gave an APTT ([…], time 14 day) of 15.5 s, a Bas ([…], time 14 day) of 0% and an Eos ([…], time 14 day) of 1%. For the same molecule, the Fbg ([…], time 14 day) was 263.4 mg/dL, the Hb ([…], time 14 day) was 14.2 g/dL and the Ht ([…], time 14 day) was 43.5%. For the same molecule, the Lym ([…], time 14 day) was 74.8%, the MCH ([…], time 14 day) was 20.7 pg and the MCHC ([…], time 14 day) was 32.6%. The MCV ([…], time 14 day) was 63.2 fL, the Mono ([…], time 14 day) was 7.8% and the Neu ([…], time 14 day) was 16.8%. It also gave a PT ([…], time 14 day) of 11.7 s, a Plat ([…], time 14 day) of 130.6 x10_4/uL and an RBC ([…], time 14 day) of 687 x10_4/ul. The Ret ([…], time 14 day) was 6%, the WBC ([…], time 14 day) was 122.6 x10_2/uL and the APTT ([…], time 28 day) was 17.8 s. For the same molecule, the Bas ([…], time 28 day) was 0%, the Eos ([…], time 28 day) was 1.6% and the Fbg ([…], time 28 day) was 249.4 mg/dL. The Hb ([…], time 28 day) was 15.2 g/dL and the Ht ([…], time 28 day) was 46.3%.
